These results are taken from ChEMBL document CHEMBL5576127, “New CDDO Arylboronate Ester Derivatives with High Selectivity and Low Toxicity” (J Med Chem, 2024).

What is called IC50 is the midpoint of a concentration-inhibition curve.

The test system of data set [1] is BGC-823. Briefly: Induction of apoptosis in human BGC-823 cells assessed as late apoptotic cells at 6 uM incubated for 48 hrs by Annexin V-FITC/PI staining based flow cytometric analysis ( Rvb = 5.61 %). The format is functional. On the technique in general: Flow cytometry measures light scatter and fluorescence of single cells or particles in a stream.
A further data set relates to NCI-N87. Briefly: Antiproliferative activity against human NCI-N87 cells assessed as inhibition of cell proliferation incubated for 48 hrs by MTT assay. It is filed as functional, cell-based. The settings on record: NCI-N87, 48 h. (Tetrazolium dyes change colour on reduction, which living cells bring about.)
The subject of data set [2] is BGC-823. In words: Antiproliferative activity against human BGC-823 cells assessed as reduction in cell viability at 0.52 to 7.68 uM preincubated with H2O2 for 2 hrs followed by compound addition and measured after 48 hrs by MTT assay. It is filed as functional, cell-based. The settings on record: dose 0.52-7.68 µM.
Data set [3] in a line: Acute toxicity in ip dosed ICR mouse assessed as effect on spleen by H and E staining based analysis. The format is organism-based. The settings on record: in vivo.
Data set [4] concerns BGC-823. In words: Induction of apoptosis in human BGC-823 cells assessed as viable cells at 1.5 uM incubated for 48 hrs by Annexin V-FITC/PI staining based flow cytometric analysis ( Rvb = 90.09 %). The settings on record: read-out: Activity. The format is functional.
The subject of data set [5] is BGC-823. Briefly: Induction of apoptosis in human BGC-823 cells assessed as early apoptotic cells at 6 uM incubated for 48 hrs by Annexin V-FITC/PI staining based flow cytometric analysis ( Rvb = 1.68 %). It is filed as functional.
Data set [6] has as its system BGC-823. Briefly: Induction of apoptosis in human BGC-823 cells assessed as viable cells at 3 uM incubated for 48 hrs by Annexin V-FITC/PI staining based flow cytometric analysis ( Rvb = 90.09 %). The format is functional. The settings on record: read-out: Activity.
Data set [7] concerns BGC-823. In words: Induction of apoptosis in human BGC-823 cells assessed as necrotic cells at 1.5 uM incubated for 48 hrs by Annexin V-FITC/PI staining based flow cytometric analysis ( Rvb = 1.79 %). The format is functional.
A short description of data set [8]: Acute toxicity in ip dosed ICR mouse assessed as effect on kidney by H and E staining based analysis. The format is organism-based. The following applies: in vivo.
Data set [9] has as its system BGC-823. In words: Antiproliferative activity against human BGC-823 cells assessed as inhibition of cell proliferation preincubated with H2O2 for 2 hrs followed by compound addition and measured after 48 hrs by MTT assay. It is filed as functional, cell-based.

The structures appear in SMILES notation. Active and inactive are the calls of the source. The rule behind the calls is not given here.

In the case of `CC1(C)CC[C@]2(C(=O)OCCCCOC(=O)c3ccc(OCc4ccc(B5OC(C)(C)C(C)(C)O5)cc4)cc3)CC[C@]3(C)[C@H](C(=O)C=C4[C@@]5(C)C=C(C#N)C(=O)C(C)(C)[C@@H]5CC[C@]43C)[C@@H]2C1`, the Activity with BGC-823 [1] is recorded as 14.9%; in data set [3] it was “Non-Toxic”; in the data set on BGC-823 [5] it was 3.71%; in the data set with BGC-823 [7], 3.23%; in data set [8], “Non-Toxic”. In addition, the IC50 in the data set with NCI-N87 was 2.5 µM; in the data set on BGC-823 [9], 1.2 µM. In addition, the result in the data set on BGC-823 [2] was Active. Further, the viability at 1.5 µM in the data set on BGC-823 [4] came out at 87.1%. In addition, the viability at 3 µM in the data set with BGC-823 [6] came to 82.8%.
